Assay results published in ChEMBL document CHEMBL1201862, “PubChem BioAssay data set” (2004).
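Cultured in 96-well plates, cells were exposed to test compound for 48 hours across five concentrations. Abbreviation: GI50, concentration required for 50% inhibition of growth.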 Calls of active or inactive are those of the source. No stated cut-off is given here; in the data, active = GI50 up to about 1.1 µM and inactive = higher.

How the values were obtained:
Assay in all cases: inhibition of tumour cell growth, NCI panel, 48 h
[1] = test system: HOP-62
[2] = test system: UO-31
[3] = test system: BT-549
[4] = test system: MDA-MB-435
[5] = test system: RXF 393
[6] = test system: SK-OV-3
[7] = test system: CCRF-CEM
[8] = test system: SF-539
[9] = test system: HL-60
[10] = test system: HT-29
[11] = test system: OVCAR-8
[12] = test system: NCI-H522
[13] = test system: OVCAR-4
[14] = test system: OVCAR-5
[15] = test system: PC-3
[16] = test system: MDA-N
[17] = test system: ACHN
[18] = test system: MDA-MB-231
[19] = test system: M14
[20] = test system: CAKI-1
[21] = test system: HOP-92
[22] = test system: LOX IMVI
[23] = test system: SF-268
[24] = test system: UACC-257
[25] = test system: EKVX
[26] = test system: SK-MEL-28
[27] = test system: DU-145
[28] = test system: OVCAR-3
[29] = test system: K562
[30] = test system: Malme-3M
[31] = test system: SK-MEL-2
[32] = test system: COLO 205
[33] = test system: SF-295
[34] = test system: 786-0
[35] = test system: Hs-578T
[36] = test system: U-251
[37] = test system: NCI-H23
[38] = test system: A549
[39] = test system: NCI-H460
[40] = test system: SN12C
[41] = test system: KM12
[42] = test system: HCT-15
[43] = test system: T47D
[44] = test system: NCI/ADR-RES
[45] = test system: IGROV-1
[46] = test system: SK-MEL-5
[47] = test system: SNB-19
[48] = test system: HCT-116
[49] = test system: NCI-H226
[50] = test system: SW-620
[51] = test system: TK-10
[52] = test system: UACC-62
[53] = test system: SNB-75
[54] = test system: HCC 2998
[55] = test system: SR
[56] = test system: RPMI-8226
[57] = test system: MCF7
[58] = test system: MOLT-4
[59] = test system: A498

In the case of `CC(C)CCC[C@@H](C)[C@H]1CCC2C3CC=C4C[C@@H](Oc5c6ccccc6nc6ccccc56)CCC4C3CCC21` (stereo not given in full), the GI50 [1] is reported as > 50 µM (inactive), the GI50 [2] is reported as 25.6 µM (inactive) and the GI50 [3] is reported as > 50 µM (inactive). For the same compound, the GI50 [4] was > 50 µM (inactive), the GI50 [5] was > 50 µM (inactive) and the GI50 [6] was > 50 µM (inactive). For the same compound, the GI50 [7] was > 50 µM (inactive), the GI50 [8] was > 50 µM (inactive) and the GI50 [9] was > 50 µM (inactive). For the same compound, the GI50 [10] was > 50 µM (inactive), the GI50 [11] was > 50 µM (inactive) and the GI50 [12] was 36.4 µM (inactive). The GI50 [13] was > 50 µM (inactive), the GI50 [14] was > 50 µM (inactive) and the GI50 [15] was > 50 µM (inactive). The GI50 [16] was > 50 µM (inactive), the GI50 [17] was > 50 µM (inactive) and the GI50 [18] was 39.9 µM (inactive). The GI50 [19] was > 50 µM (inactive), the GI50 [20] was > 50 µM (inactive) and the GI50 [21] was > 50 µM (inactive). The GI50 [22] was > 50 µM (inactive), the GI50 [23] was > 50 µM (inactive) and the GI50 [24] was > 50 µM (inactive). The GI50 [25] was > 50 µM (inactive), the GI50 [26] was > 50 µM (inactive) and the GI50 [27] was > 50 µM (inactive). For the same compound, the GI50 [28] was > 50 µM (inactive), the GI50 [29] was > 50 µM (inactive) and the GI50 [30] was > 50 µM (inactive). The GI50 [31] was > 50 µM (inactive), the GI50 [32] was > 50 µM (inactive) and the GI50 [33] was > 50 µM (inactive). The GI50 [34] was > 50 µM (inactive), the GI50 [35] was > 50 µM (inactive) and the GI50 [36] was > 50 µM (inactive). For the same compound, the GI50 [37] was > 50 µM (inactive), the GI50 [38] was > 50 µM (inactive) and the GI50 [39] was > 50 µM (inactive). For the same compound, the GI50 [40] was > 50 µM (inactive), the GI50 [41] was > 50 µM (inactive) and the GI50 [42] was greater than 50 µM. The GI50 [43] was > 50 µM (inactive), the GI50 [44] was > 50 µM (inactive) and the GI50 [45] was > 50 µM (inactive). The GI50 [46] was > 50 µM (inactive), the GI50 [47] was > 50 µM (inactive) and the GI50 [48] was > 50 µM (inactive). The GI50 [49] was > 50 µM (inactive), the GI50 [50] was > 50 µM (inactive) and the GI50 [51] was > 50 µM (inactive). For the same compound, the GI50 [52] was > 50 µM (inactive).
With `C[C@H]1O[C@@H](C(C)(C)C)OC(=O)[C@@H]1C(OC(=O)c1ccccc1)c1cccc2ccccc12` (stereo not given in full) the GI50 [1] was > 100 µM (inactive), the GI50 [2] was > 100 µM (inactive) and the GI50 [3] was > 100 µM (inactive). The GI50 [4] was > 100 µM (inactive), the GI50 [5] was > 100 µM (inactive) and the GI50 [6] was > 100 µM (inactive). For the same compound, the GI50 [7] was > 100 µM (inactive), the GI50 [8] was > 100 µM (inactive) and the GI50 [10] was > 100 µM (inactive). The GI50 [11] was > 100 µM (inactive), the GI50 [12] was > 100 µM (inactive) and the GI50 [13] was > 100 µM (inactive). The GI50 [14] was > 100 µM (inactive), the GI50 [15] was > 100 µM (inactive) and the GI50 [16] was > 100 µM (inactive). For the same compound, the GI50 [17] was > 100 µM (inactive), the GI50 [18] was > 100 µM (inactive) and the GI50 [19] was > 100 µM (inactive). For the same compound, the GI50 [20] was > 100 µM (inactive), the GI50 [22] was > 100 µM (inactive) and the GI50 [23] was > 100 µM (inactive). For the same compound, the GI50 [24] was > 100 µM (inactive), the GI50 [25] was > 100 µM (inactive) and the GI50 [26] was > 100 µM (inactive). The GI50 [53] was > 100 µM (inactive), the GI50 [28] was > 100 µM (inactive) and the GI50 [29] was > 100 µM (inactive). For the same compound, the GI50 [30] was > 100 µM (inactive), the GI50 [31] was > 100 µM (inactive) and the GI50 [32] was > 100 µM (inactive). For the same compound, the GI50 [33] was > 100 µM (inactive), the GI50 [34] was > 100 µM (inactive) and the GI50 [54] was > 100 µM (inactive). For the same compound, the GI50 [35] was 40.7 µM (inactive), the GI50 [36] was > 100 µM (inactive) and the GI50 [37] was > 100 µM (inactive). The GI50 [38] was > 100 µM (inactive), the GI50 [39] was > 100 µM (inactive) and the GI50 [40] was > 100 µM (inactive). For the same compound, the GI50 [55] was 48.4 µM (inactive), the GI50 [41] was > 100 µM (inactive) and the GI50 [42] was greater than 100 µM. The GI50 [43] was 64.1 µM (inactive), the GI50 [44] was 56.1 µM (inactive) and the GI50 [45] was > 100 µM (inactive). The GI50 [56] was > 100 µM (inactive), the GI50 [46] was > 100 µM (inactive) and the GI50 [47] was > 100 µM (inactive). The GI50 [48] was > 100 µM (inactive), the GI50 [57] was > 100 µM (inactive) and the GI50 [49] was 8.87 µM (inactive). The GI50 [50] was > 100 µM (inactive), the GI50 [51] was > 100 µM (inactive) and the GI50 [58] was > 100 µM (inactive). For the same compound, the GI50 [52] was > 100 µM (inactive).
`Cc1ccc(-[n+]2cc([O-])on2)cc1` was tested, and the GI50 [1] was > 100 µM (inactive), the GI50 [2] was > 100 µM (inactive) and the GI50 [3] was > 100 µM (inactive). For the same compound, the GI50 [4] was > 100 µM (inactive), the GI50 [5] was > 100 µM (inactive) and the GI50 [7] was > 100 µM (inactive). The GI50 [9] was > 100 µM (inactive), the GI50 [10] was > 100 µM (inactive) and the GI50 [11] was > 100 µM (inactive). The GI50 [12] was > 100 µM (inactive), the GI50 [13] was > 100 µM (inactive) and the GI50 [14] was > 100 µM (inactive). For the same compound, the GI50 [15] was > 100 µM (inactive), the GI50 [16] was > 100 µM (inactive) and the GI50 [17] was > 100 µM (inactive). For the same compound, the GI50 [18] was > 100 µM (inactive), the GI50 [19] was > 100 µM (inactive) and the GI50 [59] was 65.8 µM (inactive). The GI50 [20] was > 100 µM (inactive), the GI50 [21] was 64 µM (inactive) and the GI50 [22] was > 100 µM (inactive). For the same compound, the GI50 [23] was > 100 µM (inactive), the GI50 [24] was > 100 µM (inactive) and the GI50 [25] was > 100 µM (inactive). The GI50 [26] was > 100 µM (inactive), the GI50 [27] was > 100 µM (inactive) and the GI50 [28] was > 100 µM (inactive). For the same compound, the GI50 [29] was > 100 µM (inactive), the GI50 [30] was > 100 µM (inactive) and the GI50 [31] was > 100 µM (inactive). The GI50 [33] was > 100 µM (inactive), the GI50 [34] was > 100 µM (inactive) and the GI50 [35] was > 100 µM (inactive). For the same compound, the GI50 [36] was > 100 µM (inactive), the GI50 [37] was > 100 µM (inactive) and the GI50 [38] was > 100 µM (inactive). The GI50 [39] was > 100 µM (inactive), the GI50 [40] was > 100 µM (inactive) and the GI50 [55] was > 100 µM (inactive). The GI50 [41] was > 100 µM (inactive), the GI50 [42] was greater than 100 µM and the GI50 [43] was > 100 µM (inactive). For the same compound, the GI50 [44] was > 100 µM (inactive), the GI50 [45] was > 100 µM (inactive) and the GI50 [56] was > 100 µM (inactive). The GI50 [46] was > 100 µM (inactive), the GI50 [47] was > 100 µM (inactive) and the GI50 [48] was > 100 µM (inactive). For the same compound, the GI50 [49] was 10.1 µM (inactive), the GI50 [50] was > 100 µM (inactive) and the GI50 [51] was > 100 µM (inactive). The GI50 [58] was > 100 µM (inactive) and the GI50 [52] was > 100 µM (inactive).
